Test system: human keratinocyte HaCaT
Test: Hyaluronic acid synthesis, Quantikine ELISA Hyaluronan
Assay type: cell-based
Conditions: 30 ppb, 72 hours
Description: Samples were treated with human keratinocyte HaCaT for 72 hours at each concentration. Hyaluronic acid synthesis was compared with the control group (DMEM treatment containing 0% serum) using Quantikine ELISA Hyaluronan from R&D Systems to quantify the moisturizing ability.

CC1=C(/C=C/C(C)=C/C=C/C(C)=C/C(=O)O)C(C)(C)CCC1 [Retinoic acid] was tested, and the “Hyaluronic Acid Synthesis Ability” value was 18.6 % of control.
